Measurements reported in ChEMBL document CHEMBL1201862, “PubChem BioAssay data set” (2004).
Calls of active or inactive are those of the source.

How the values were obtained:
Cytochrome P450 3A4 = Cytochrome P450 3A4 (Homo sapiens, UniProt P08684);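 note: CYP3A4 tested as one member of a cytochrome P450 panel screen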
Ion channel NompC = Ion channel NompC (Danio rerio, UniProt Q7T1G6); assay: Dose response cell-based high-throughput screening assay for agonists of the transient receptor potential channel N1 (TRPN1). [Related pubchem assays (depositor defined):AID1424, AID1448]; type: functional
Mucolipin-3 = target: T1, Mucolipin-3 (Homo sapiens, UniProt Q8TDD5); assay: Fluorescence counterscreen assay for […] agonists: dose response cell-based high-throughput screening assay to identify agonists of the transient receptor potential channel ML3 (TRPML3). [Related pubchem assays: 1424, 1448 ]; type: functional
T1 sequence (Q8TDD5 whole entry): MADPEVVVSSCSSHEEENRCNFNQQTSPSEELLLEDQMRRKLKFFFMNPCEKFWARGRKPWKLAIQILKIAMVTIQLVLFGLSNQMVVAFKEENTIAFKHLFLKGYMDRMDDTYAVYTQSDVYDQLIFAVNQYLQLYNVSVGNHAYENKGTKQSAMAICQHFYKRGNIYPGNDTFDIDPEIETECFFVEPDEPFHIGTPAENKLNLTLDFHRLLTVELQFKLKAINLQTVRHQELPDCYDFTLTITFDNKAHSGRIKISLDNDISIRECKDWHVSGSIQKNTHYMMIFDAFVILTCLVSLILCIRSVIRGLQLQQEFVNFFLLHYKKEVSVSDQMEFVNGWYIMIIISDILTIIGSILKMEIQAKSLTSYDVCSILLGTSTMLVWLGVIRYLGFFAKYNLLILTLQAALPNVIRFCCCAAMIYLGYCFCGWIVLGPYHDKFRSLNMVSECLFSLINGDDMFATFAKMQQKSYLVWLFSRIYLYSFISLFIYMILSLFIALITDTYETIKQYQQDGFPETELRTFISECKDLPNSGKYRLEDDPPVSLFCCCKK

[1] = viability of uninfected HEp-2 cells – cell-based, HTS, cytotoxicity control for RSV inhibitor project, dose response (AID 2410); type: functional; details: human respiratory syncytial virus
[2] = target: Peroxisome proliferator-activated receptor gamma/Nuclear receptor coactivator 1 (Homo sapiens, UniProt P37231); assay: (§1) TR-FRET dose response biochemical High Throughput Screening assay for agonists of the steroid receptor coactivator 1 (SRC-1) recruitment by the peroxisome proliferator-activated receptor gamma (PPAR gamma): non-selective agonists. [Related pubchem assays (depositor defined):AID1300, AID1808, AID504735, AID631]; type: protein assay
[3] = tested on: Streptococcus sp. 'group A'; assay: Streptococcus pyogenes SK(-)GAS viability under kanamycin – luminescence, BacTiterGlo, confirmation, counter-screen for streptokinase expression inhibitor project, dose response (AID 1900); type: functional, organism-based
[4] = target: Peroxisome proliferator-activated receptor gamma/Nuclear receptor coactivator 3 (Homo sapiens, UniProt P37231); assay: as §1, with “3 (SRC-3)” for “1 (SRC-1)”, “assays: 1301 (Confirmation screen.), 1048 (Primary screen.)]” for “assays (depositor defined):AID1300, AID1808, AID504735, AID631]”; type: functional
Streptococcus [5] = assay: Luminescence Microorganism-Based Dose Response Follow up to Identify Compounds Cytotoxic to Streptococcus. [Related pubchem assays: 1677 (Project Summary), 1915, 1914, 1902 (Retest at Dose), 1900 (Counter Screen), 1662 (Primary HTS)]; type: functional, organism-based
Streptokinase A = target: T2, Streptokinase A (Streptococcus pyogenes serotype M1, UniProt P10520); assay: viability-normalized secreted streptokinase activity reduction – plasminogen activation absorbance, OD405, dose response (AID 1914); type: functional, Streptococcus pyogenes M1 GAS;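 note: secreted streptokinase activity via plasminogen activation per viability signal from cell pellet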
T2 sequence (P10520 whole entry): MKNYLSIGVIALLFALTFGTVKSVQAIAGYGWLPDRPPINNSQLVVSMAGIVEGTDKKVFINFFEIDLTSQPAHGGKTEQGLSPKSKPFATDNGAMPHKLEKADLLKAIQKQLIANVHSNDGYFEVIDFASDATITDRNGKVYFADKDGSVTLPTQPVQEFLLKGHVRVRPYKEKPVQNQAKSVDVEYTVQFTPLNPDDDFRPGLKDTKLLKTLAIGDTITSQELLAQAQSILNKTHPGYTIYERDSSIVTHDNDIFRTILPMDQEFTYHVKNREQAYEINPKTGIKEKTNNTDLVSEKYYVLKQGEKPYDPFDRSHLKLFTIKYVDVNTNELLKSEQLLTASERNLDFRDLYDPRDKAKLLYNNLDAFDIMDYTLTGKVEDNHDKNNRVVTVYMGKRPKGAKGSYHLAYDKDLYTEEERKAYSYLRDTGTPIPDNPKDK

[6] = target: Protein-tyrosine kinase 2-beta (Homo sapiens, UniProt Q14289);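 note: potency of inhibitors of PYK2 kinase phosphorylation of poly-GT substrate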
[7] = target: Peroxisome proliferator-activated receptor gamma/Nuclear receptor coactivator 2 (Homo sapiens, UniProt P37231); assay: TR-FRET dose response biochemical High Throughput Screening assay for agonists of the steroid receptor coactivator 2 (SRC-2) recruitment by the peroxisome proliferator-activated receptor gamma (PPAR gamma): non-selective agonists. [Related pubchem assays: 1297, 1032 ]; type: functional
Streptococcus [8] = assay: GAS UMAA2166 growth inhibition – luminescence, BacTiterGlo, counter-screen for streptokinase expression inhibitor project, dose response (AID 1915); type: functional, organism-based;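 note: potency for reduction of bacterial viability or growth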
[9] = microbe, parasite or virus in culture; type: functional; details: Mycobacterium tuberculosis
HEK293 [10] = assay: inhibition of NOD1-driven NF-kB reporter – cell-based, luminescence, uHTS, primary screen (AID 1578); type: functional; details: Homo sapiens
HEK293 [11] = assay: cells; type: functional, cell-based; details: Homo sapiens
HEK293 [12] = assay: cells; type: functional, cell-based; details: Homo sapiens; remark: listed apart in the source
HEK293 [13] = assay: NOD2 signaling inhibitors in MDP-stimulated cells, cell-based, uHTS, luminescence (AID 2001); type: functional; details: Homo sapiens
Troponin, cardiac muscle = Troponin, cardiac muscle (Homo sapiens, UniProt P19429+P45379+P63316); assay: Fluorescence-based biochemical high throughput dose response assay for activators of the calcium sensitivity of cardiac Regulated Thin Filaments (RTF). [Related pubchem assays (depositor defined):AID493008, AID493018, AID504382, AID504383]; type: protein-complex assay
[14] = target: T3, Replicative DNA helicase DnaB (Mycobacterium tuberculosis, UniProt P9WMR3); assay: DnaB intein splicing inhibitors, dose response, biochemical, cell-free fluorescence (AID 449749); type: functional
T3 sequence (P9WMR3 whole entry): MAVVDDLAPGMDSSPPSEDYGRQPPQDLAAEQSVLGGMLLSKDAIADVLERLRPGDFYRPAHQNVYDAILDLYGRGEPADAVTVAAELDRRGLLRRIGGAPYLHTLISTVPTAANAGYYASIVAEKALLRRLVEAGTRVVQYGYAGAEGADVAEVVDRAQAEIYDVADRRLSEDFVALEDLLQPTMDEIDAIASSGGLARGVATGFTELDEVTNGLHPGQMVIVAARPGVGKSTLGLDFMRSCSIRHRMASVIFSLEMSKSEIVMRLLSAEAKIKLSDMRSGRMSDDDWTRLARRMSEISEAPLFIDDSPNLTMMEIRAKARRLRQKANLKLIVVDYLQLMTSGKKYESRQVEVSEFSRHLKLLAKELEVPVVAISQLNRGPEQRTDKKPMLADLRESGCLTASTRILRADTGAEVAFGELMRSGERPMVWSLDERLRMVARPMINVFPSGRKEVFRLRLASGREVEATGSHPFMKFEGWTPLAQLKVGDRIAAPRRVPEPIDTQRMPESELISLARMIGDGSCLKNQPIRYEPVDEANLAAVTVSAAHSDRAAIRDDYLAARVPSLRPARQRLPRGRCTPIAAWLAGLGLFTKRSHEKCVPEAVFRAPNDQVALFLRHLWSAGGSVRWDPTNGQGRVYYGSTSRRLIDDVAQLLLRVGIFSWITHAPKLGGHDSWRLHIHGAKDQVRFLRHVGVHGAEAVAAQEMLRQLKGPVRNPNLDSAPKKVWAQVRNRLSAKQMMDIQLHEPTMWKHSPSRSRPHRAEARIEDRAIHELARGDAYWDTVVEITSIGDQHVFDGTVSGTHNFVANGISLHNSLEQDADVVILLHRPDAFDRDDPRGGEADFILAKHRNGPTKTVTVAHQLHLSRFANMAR

Protein RecA = target: T4, Protein RecA (Mycobacterium tuberculosis, UniProt P9WHJ3); assay: Fluorescence Cell-Free Homogeneous Dose Retest to Identify Inhibitors of RecA-Intein Splicing Activity. [Related pubchem assays (depositor defined):AID2097, AID2223, AID489010, AID492950]; type: functional
T4 sequence (P9WHJ3 whole entry): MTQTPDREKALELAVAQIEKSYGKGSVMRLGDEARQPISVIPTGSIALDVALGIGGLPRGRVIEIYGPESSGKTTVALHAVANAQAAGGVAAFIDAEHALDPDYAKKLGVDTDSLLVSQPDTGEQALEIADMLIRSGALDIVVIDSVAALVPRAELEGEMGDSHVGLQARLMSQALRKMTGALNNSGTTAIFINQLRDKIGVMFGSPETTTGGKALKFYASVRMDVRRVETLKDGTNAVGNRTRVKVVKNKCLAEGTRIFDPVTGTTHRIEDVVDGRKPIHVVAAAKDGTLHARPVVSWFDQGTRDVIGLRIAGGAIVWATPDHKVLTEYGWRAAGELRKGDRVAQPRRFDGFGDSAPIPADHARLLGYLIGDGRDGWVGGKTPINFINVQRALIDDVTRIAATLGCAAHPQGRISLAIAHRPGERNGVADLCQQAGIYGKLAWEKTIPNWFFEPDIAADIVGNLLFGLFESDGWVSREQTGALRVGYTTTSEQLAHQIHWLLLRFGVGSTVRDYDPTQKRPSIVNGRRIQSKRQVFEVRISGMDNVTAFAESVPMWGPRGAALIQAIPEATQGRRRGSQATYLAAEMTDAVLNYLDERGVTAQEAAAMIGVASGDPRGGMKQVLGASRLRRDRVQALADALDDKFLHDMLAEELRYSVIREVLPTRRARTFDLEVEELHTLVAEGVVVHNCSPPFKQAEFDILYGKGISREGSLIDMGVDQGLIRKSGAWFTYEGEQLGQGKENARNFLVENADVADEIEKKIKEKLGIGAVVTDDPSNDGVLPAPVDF

For `CCc1nnc(NC(=O)CCC(=O)N2CCN(c3ccccn3)CC2)s1`, which AC50 (Cytochrome P450 3A4) is on record?
Its AC50 is “inconclusive”.

For `Cc1cc(O)nc(SCC(=O)Nc2ccccc2C)n1`, which EC50 (Ion channel NompC) is on record?
Its EC50 is > 29.9 µM (inactive).

And the EC50 (Mucolipin-3)?
Its EC50 is > 29.9 µM (not active).

For `COc1ccc(-c2nc(-c3cccs3)c(-c3cccs3)[nH]2)cc1OC`, which CC50 [1] is on record?
The CC50 was 23.4 µM (active).

And the EC50 [2]?
The EC50 was 13.9 µM (inactive).

And the EC50 [3]?
The EC50 was 2.57 µM (active).

What about the EC50 [4] of the same compound?
Its EC50 is > 79.4 µM (not active).

What about the EC50 (Streptococcus [5]) of the same compound?
The EC50 was 5.41 µM (active).

What about the EC50 (Streptokinase A) of the same compound?
Its EC50 is 1.41 µM (active).

What about the IC50 [6] of the same compound?
The IC50 was > 69.5 µM (not active).

What about the EC50 [7] of the same compound?
The EC50 was 15.6 µM (not active).

What about the EC50 (Streptococcus [8]) of the same compound?
The EC50 was > 150 µM (not active).

Which EC50 (Ion channel NompC) does the source give for `C/C(=C1/C(=O)N(c2ccc([N+](=O)[O-])cc2)N=C1c1ccccc1)N(C)C` here?
The EC50 was 3.71 µM (active).

And the CC50 [9]?
The CC50 was 10.6 µM (active).

What about the EC50 (Mucolipin-3) of the same compound?
The EC50 was 5.21 µM (active).

Which results are given for `COc1cc(S(=O)(=O)NCc2ccncc2)ccc1Br`?
EC50 (HEK293 [10]): 3.02 µM (active); IC50 (HEK293 [11]): 16.5 µM (active); IC50 (HEK293 [12]): > 20 µM (inactive); IC50 (HEK293 [13]): > 20 µM (inactive)

Which results are given for `Cc1cccc(/C=N/NC(=O)C(C)Nc2cccc3ccccc23)n1` (configuration not stated)?
EC50 (Troponin, cardiac muscle): 10.5 µM (inactive); AC50 [14]: 3.78 µM (active); EC50 (Protein RecA): 47.1 µM (active)
